Key:
[1] = test system: PME defect of rad-23 deficient animals (proteasome pathway); assay: PME microscopy assay in rad-23(tm2595) crosses; assay type: in vivo, C. elegans; conditions: 50 μM, 64-cell embryos (FIG. 3d)
Description: FIG. 3. Resveratrol isomers target CPS-6 to affect PME. a, b, Both cis-resveratrol and trans-resveratrol act paternally to affect PME. The numbers of MTR-stained paternal mitochondrial clusters in embryos at 64-cell (a) or 16-cell (b) stage from the indicated crosses were scored. N2 males or hermaphrodites were pretreated with 0.25% ethanol (Mock), 50 μM cis-resveratrol (a), or 50 μM trans-resveratrol (b) as indicated before mating. c-g, Quantification of MTR-stained paternal mitochondrial clusters in 64-cell embryos from the indicated crosses treated with 0.25% ethanol (Mock), 50 μM cis-resveratrol, and 50 μM trans-resveratrol, respectively. Alleles used are lgg-1(bp523), cps-6(tm3222) and rad-23(tm2595). Data are mean s.e.m; n≥15 embryos (a) and n≥20 embryos (b, c-g) were scored in each experiment. ***P<0.001; n.s., not significant, two-sided, unpaired t-test. h, Resveratrol isomers enhance or inhibit the nuclease activity of CPS-6 in a plasmid DNA cleavage assay. 10 ng of CPS-6 were incubated with 0.25% ethanol (Mock), 20 μM cis-resveratrol, or 20 μM trans-resveratrol in dark at 4° C. for 1.5 hours, before 1 μg of the pPD49.78 plasmid DNA were added to the reactions. After further incubation at 30° C. for 1 hour, the reactions were resolved on a 1% agarose gel. Three different forms of plasmid DNA are indicated. […]

[2] = HPLC analysis of resveratrol isomer composition / interconversion; assay type: physicochemical; conditions: UV irradiation 4 hours at 0° C.; for fraction converted into the other isomer on UV exposure: pure isomer, 50 μM solution
Description: FIG. 2. High performance liquid chromatography analysis of resveratrol isomers. a, b, e-g HPLC profiles and peak retention times detected at 303 nm of 1.0 μg commercially “pure” trans-resveratrol (a), 1.0 μg of commercially “pure” cis-resveratrol (b), 20 μL of 50 μM aged trans-resveratrol solution (e), 20 μL of 50 μM commercially “pure” trans-resveratrol solution subjected to UV irradiation for 4 hours at 0° C. (f), and 20 μL of 50 μM commercially “pure” cis-resveratrol solution subjected to UV irradiation for 4 hours at 0° C. (g). Due to the different extinction coefficients of the resveratrol isomers, standard curves of trans-resveratrol (c) and cis-resveratrol (d) were generated by analyzing a series of working solutions for each isomer. Good linear correlations (R^2≥0.9999) were acquired over the concentration range of 0-45 μM trans-resveratrol (c) and 0-110 μM cis-resveratrol (d), with the corresponding regression equations. (h) Compositions of the resveratrol isomers in the indicated samples, without or with UV irradiation (see Methods) as quantified by HPLC.
To confirm the interconversion between trans-resveratrol and cis-resveratrol and to quantitatively measure the ratio of cis- and trans-isomers in the resveratrol solution, we performed high performance liquid chromatography (HPLC) analysis, which can effectively separate trans- and cis-isomers (FIG. 2a, b). […] This ratio of trans- and cis-resveratrol accounts for the unexpected PME inhibition by the aged trans-resveratrol solution (FIG. 1a, b), because cis-resveratrol could inhibit PME (FIG. 1d) and became the dominant isomer in this aged trans-resveratrol solution (FIG. 2h).

[3] = test system: germline tumor in daf-16(mu86); cki-2(ok2105); glp-1(ar202) mutant (ET507); assay: germline tumor model (ET507); assay type: in vivo, C. elegans; conditions: 200 μM, ET507 animals at 20° C.; for tumor size: adult day 5, vs 1% ethanol; for tumor occurring frequency: vs 1% ethanol
Description: FIG. 9. Cis-resveratrol inhibits and trans-resveratrol promotes germline tumor formation. Tumor size and tumor occurring frequency of the daf-16(mu86); cki-2(0k2105); glp-1 (ar202) mutant grown at 20° C. and treated with 1% ethanol (Mock), 200 μM cis-resveratrol (Cis), and 200 μM trans-resveratrol (Trans), respectively, are shown. Tumor assays were performed in triplicate with 100 animals per replicate. a, A five-stage classification was created to measure the tumor size in adult day 5 animals under the Normaski optic. Score 1 denotes the normal gonads seen in wild-type animals. Score 5 denotes enlarged gonads full of mitotic germ cells and without any egg or oocyte. Score 2-4 denote partially enlarged gonads. b, Tumor frequency indicates the percentage of animals with enlarged gonads (score 5). Data from three independent biological replicates are shown as mean±SEM. *P<0.05; **P<0.01; ***P<0.001, two-sided, unpaired t-test.
FIG. 14. stabilized cis-resveratrol inhibits germline tumor formation as well as cis-resveratrol. Tumor occurring frequency of the daf-16 (mu86); cki-2 (0k2105); glp-1 (ar202) mutant (ET507) grown at 20° C. and treated with 0.25% ethanol (Mock), 100 μM cis-resveratrol, and 100 μM Stabilized cis-resveratrol, respectively, are shown. Tumor assays were performed in triplicate with 100 animals per replicate. Data are mean±s.e.m. ****P<0.001, two-sided, unpaired t-test
The present inventors tested whether resveratrol isomers affect tumorigenesis in a C. elegans germline tumor model (ET507), in which three cell growth genes, daf-16, cki-2, and glp-1, are mutated, leading to uncontrolled germ cell proliferation and germline tumor.

[4] = test system: cross-fertilized embryos with persistent uaDf5 paternal mitochondria (loss of lgg-1); assay: embryonic lethality caused by persistent uaDf5 paternal mitochondria; assay type: in vivo, C. elegans; conditions: 100 μM, males pretreated eight hours before mating, 25° C.
Description: FIG. 10. Trans-resveratrol reduces embryonic lethality through enhancing removal of mutant paternal mitochondria. The embryonic lethality rate was scored in cross-fertilized embryos from crosses of the indicated genotypes. Males were pretreated with either 0.5% ethanol (Mock) or […] trans-resveratrol (trans) for eight hours before mating. All males carried smIs42 to assist identification of zygotes. Data are means SEM; n>200 embryos per cross at 25° C. n.s., no significant difference; *P<0.05 using two-sided, unpaired t-test.
Several studies have shown that abnormal persistence of paternal mitochondria is detrimental to normal development and causes various deficiencies, including neurological and muscular defects, which lack treatment options.

Row | Compound | effect on PME defects in rad-23 deficient animals [1] | fraction converted into the other isomer on UV exposure [2] [%] | tumor size [3] | tumor occurring frequency [3] | embryonic lethality caused by uaDf5 paternal mitochondria [4] | cis-resveratrol remaining in the mixture after UV exposure [2] [%]
1 | Oc1ccc(/C=C/c2cc(O)cc(O)c2)cc1 [trans-resveratrol, 3,5,4′-trihydroxy-trans-stilbene] | inhibited | 68.5 | increases | increases | significantly reduced embryonic lethality | 
2 | Oc1ccc(/C=C\c2cc(O)cc(O)c2)cc1 [cis-resveratrol] | enhanced | 40 | reduces | reduces |  | 60
